From patent publication US20210130826A1, “METHODS OF MODULATING ANTISENSE ACTIVITY” (IONIS PHARMACEUTICALS, INC., priority 2018, published 2021)

Key:
[1] = system: Malat-1; assay: Malat-1 RNA by RT-qPCR in MHT cells; autophagy modulator, then oligonucleotide by free uptake; type: cell-based, mouse
Procedure: MHT cells (a mouse hepatocellular carcinoma cell line) were plated at 20,000 cells/well and treated with DMSO (control) or an autophagy modulator for 24 hours at the concentrations indicated in Table 2 below. 3-MA, BafA1, AZD8055, and leupeptin are […]. […] Fourteen hours after the addition of autophagy modulators, 10 μM of a modified control oligonucleotide or of a modified antisense oligonucleotide was added by free uptake for ten hours. The modified oligonucleotides, shown in Table 1 below, are 3-10-3 cEt gapmers in which every internucleoside linkage is a phosphorothioate internucleoside linkage. The three 5′-terminal nucleosides and the three 3′-terminal nucleosides of each oligonucleotide each comprise a cEt modified sugar moiety. The remaining ten nucleosides of each oligonucleotide each comprise an unmodified, 2′-deoxy sugar moiety.
Using the primer probe sets described in Table 3 below, RT-qPCR analysis was performed to detect RNA levels of Malat-1, shown in Table 4 and markers of autophagy, (Rab7, LAMP2, Atg7, ULK1, ULK2, Atg5, Beclin, and c-Jun), shown in Table 5. Results were normalized to cyclophilin A levels. To control for global effects of autophagy modulators on gene expression, Malat-1 RNA levels after treatment with an antisense oligonucleotide and an autophagy modulator were normalized to Malat-1 RNA levels in cells treated with control Compound No. 549148 and the same autophagy modulator.
MHT cells were plated at 20,000 cells/well and treated with DMSO (control) or an autophagy modulator for 24 hours, at the concentrations indicated Table 7 below. Fourteen hours after the addition of autophagy modulator, control or antisense oligonucleotides (see Table 6) were added at 1 μM, 2.5 μM, 5 μM, or 10 μM by free uptake for ten hours. The modified oligonucleotides, shown in Table 6 below, are 5-10-5 MOE gapmers in which every internucleoside linkage is a phosphorothioate internucleoside linkage. The five 5′-terminal nucleosides and the five 3′-terminal nucleosides of each oligonucleotide each comprise a 2′-MOE modified sugar moiety. The remaining ten nucleosides of each oligonucleotide each comprise an unmodified, 2′-deoxy sugar moiety.
RT-qPCR analysis was performed to detect RNA levels of Malat-1 using primer probe set 15877 (described in Example 1). In order to control for global effects of autophagy modulators on gene expression, Malat-1 RNA levels after treatment with an antisense oligonucleotide and an autophagy modulator were normalized to Malat-1 RNA levels in cells treated with control Compound No. 141923 and the same autophagy modulator. Each table below represents results from an individual assay.

[2] = system: Malat-1; assay: Malat-1 RNA by RT-qPCR in A431 cells; type: cell-based, human; details: MOE gapmer
Procedure: RT-qPCR analysis was performed to detect RNA levels of Malat-1 using primer probe set RTS2736. Results were normalized to cyclophilin A levels (measured using HTS3936). […] Each table below represents results from an individual assay.

[3] = system: Malat-1; assay: MALAT-1 RNA in mouse liver by RT-qPCR; type: in vivo
Procedure: The following experiments were performed to determine if the effects of autophagy modulators on antisense activity in vitro can be observed in vivo. […] Mice were sacrificed at 24 hours after administration of the modified oligonucleotide and tissues were collected for analysis. […] Atg7 mRNA levels are a marker of the induction of autophagy in treated mouse livers. Results are presented as percent change of RNA, relative to PBS control treated with DMSO, normalized to mouse cyclophilin A measured using mouse primer probe set Cyclophilin-A (forward sequence [NT], designated herein as SEQ ID NO: 38; reverse sequence [NT], designated herein as SEQ ID NO: 39; probe sequence [NT], designated herein as SEQ ID NO: 40). […] Following administration of modified oligonucleotide, groups of mice were either allowed free access to chow (control) or fasted overnight (16 hr fast). Mice were sacrificed at 16 hours after administration of the modified oligonucleotide and tissues were collected for analysis. […] Atg7 mRNA levels are a marker of the induction of autophagy in treated mouse livers. Results are presented in Table 33 relative to mice treated with PBS and allowed normal access to chow. […] Mice were sacrificed at 24 hours after administration of the modified oligonucleotide and tissues were collected for analysis. […] Atg7 mRNA levels are a marker of the induction of autophagy in treated mouse livers. […] RNA was extracted from liver tissue for real-time RTPCR analysis of MALAT1 RNA expression. Primer probe set 15877 was used to measure mouse MALAT1 RNA levels. Results are presented as percent change of RNA, relative to PBS control, normalized to mouse cyclophilin A measured using mouse primer probe set Cyclophilin-A. […] RNA was extracted from liver tissue for real-time RTPCR analysis of MALAT1 RNA expression. Primer probe set 15877 was used to measure mouse MALAT1 RNA levels. Results are presented as percent change of RNA, relative to PBS control, normalized to mouse cyclophilin A measured using mouse primer probe set Cyclophilin-A.

[4] = system: Atg7; assay: Atg7 mRNA in mouse liver by RT-qPCR; type: in vivo; details: Table 31; mouse liver 24 h; oligonucleotide 5 mg/kg; AZD8055 5 mg/kg at 0, 12, 22 h
Procedure: The following experiments were performed to determine if the effects of autophagy modulators on antisense activity in vitro can be observed in vivo. […] Mice were sacrificed at 24 hours after administration of the modified oligonucleotide and tissues were collected for analysis. […] Atg7 mRNA levels are a marker of the induction of autophagy in treated mouse livers. Results are presented as percent change of RNA, relative to PBS control treated with DMSO, normalized to mouse cyclophilin A measured using mouse primer probe set Cyclophilin-A (forward sequence [NT], designated herein as SEQ ID NO: 38; reverse sequence [NT], designated herein as SEQ ID NO: 39; probe sequence [NT], designated herein as SEQ ID NO: 40). […] Following administration of modified oligonucleotide, groups of mice were either allowed free access to chow (control) or fasted overnight (16 hr fast). Mice were sacrificed at 16 hours after administration of the modified oligonucleotide and tissues were collected for analysis. […] Atg7 mRNA levels are a marker of the induction of autophagy in treated mouse livers. Results are presented in Table 33 relative to mice treated with PBS and allowed normal access to chow. […] Mice were sacrificed at 24 hours after administration of the modified oligonucleotide and tissues were collected for analysis. […]

Structure (SMILES): COc1ccc(-c2ccc3c(N4CCOC[C@@H]4C)nc(N4CCOC[C@@H]4C)nc3n2)cc1CO [AZD8055]
- effect of autophagy modulator on modified oligonucleotide activity (in words) ([1]; MOE gapmer 399462, relative to DMSO): significantly enhanced modified oligonucleotide activity
- effect of autophagy modulator on antisense activity (in words) ([1]; cEt gapmer 556089, relative to DMSO): significantly enhanced antisense activity
- effect of autophagy modulator on modified oligonucleotide activity (in words) [2]: significantly enhanced modified oligonucleotide activity
- Malat-1 level (% relative to PBS/DMSO-treated mice) ([3]; Table 31, mouse liver 24 h, oligonucleotide 5 mg/kg, AZD8055 5 mg/kg at 0, 12, 22 h): 121%
- effect on ASO activity in vivo (in words) ([3]; mouse liver, 399462 5 mg/kg, AZD8055 5 mg/kg): greater Malat1 RNA reduction
- Atg7 level (% relative to PBS/DMSO-treated mice) [4]: 112%
